Measured values published in patent US4265901A, “2-Oxybenzimidazoline compounds” (priority 1979, dated 1981).
Structures can show the parent of a compound that is named as a salt.

Experiments:
adult housefly [1] = assay: Efficacy against adult housefly, calves intravenous injection (Example 17); format: in vivo, Musca domestica; details: daily i.v. 0.5 to 1.5 mg/kg escalating, day per line
Description: (§1) For the adult housefly test, 10 ml. of serum were employed to saturate a wick which was placed in a petri dish. Twenty-five chilled houseflies were placed in the dish which was then incubated for 24 hours at 27° C. and 50% relative humidity. After the end of the twenty-four hours, the efficacy of the candidate compound was determined as the percent mortality of housefly, adjusted as for blowfly by normal mortality in a control and reported according to the same scale as above.
A group of three calves each weighing about 220 kilograms was employed. The compound of Example 2, 2-hydroxy-2-(1,1,2,2-tetrafluoroethyl)-4-nitro-6-(trifluoromethyl)benzimidazoline, sodium salt, was dissolved in distilled water and the resulting solution was administered by intravenous injection. Rates of administration increased throughout the evaluation period, from 0.5 to 1.5 mg./kg. of body weight, with each dose supplied for a period of 5 days (except the 1.5 mg./kg. dose, which was administered for 6 days).
(§2) On each day of the evaluation, immediately preceding that day's injection, a sample of blood was withdrawn from each calf. The concentration of the compound in the blood was determined; and the efficacy of the compound against adult housefly and blowfly larvae was assayed by the method described in Example 15. […]

blowfly larvae = assay: Efficacy against blowfly larvae, calves intravenous injection (Example 17); format: in vivo, Phormia regina; details: daily i.v. 0.5 to 1.5 mg/kg escalating, day per line
Description: (§3) Representative compounds of the present invention were evaluated against larvae of blowfly (Phormia regina) and against adult housefly (Musca domestica). In these evaluations, the candidate compound was administered to each of two male guinea pigs weighing from about 400 grams to about 1000 grams. Administration was via the intraperitoneal route, the compound having been formulated in sesame oil. At twenty-four hours following administration of the compound, blood was withdrawn from the guinea pigs. The serum portion was isolated and blowfly larvae and adult houseflies were fed on the serum. For the blowfly assay, 10 ml. of serum were placed in a test tube with a wick onto which 50 blowfly larvae were placed. The covered test tube was incubated at 27° C. for 24 hours, at which time efficacy of the candidate compound was determined as the percent mortality of the blowfly larvae, adjusted by normal mortality in a control, and reported according to the following rating scale:
A group of three calves each weighing about 220 kilograms was employed. […]
as §2

adult housefly [2] = assay: Efficacy against adult housefly, calves subcutaneous pellets (Example 20); format: in vivo, Musca domestica; details: calf 651, subcutaneous pellets about 5 mg./kg.; test day per line
Description: as §1
The compound of Example 2, 2-hydroxy-2-(1,1,2,2-tetrafluoroethyl)-4-nitro-6-(trifluoromethyl)benzimidazoline sodium salt, was formulated neat into tablets, each containing about 85 mg. of compound.
These pellets were implanted in the right shoulder area of two calves, weighing 400 and 373 kilograms respectively, to supply a dose of about 5 mg./kg. (animals #651 and 1511, respectively). Another calf (animal #656) was maintained as a control and two additional calves weighing 336 and 350 kilograms (animals #654 and 655, respectively) received pellets of 2-(1,1,2,2-tetrafluoroethyl)-4-nitro-6-(trifluoromethyl)benzimidazole, to supply a dose of about 5 mg./kg. of compound.
As described in preceding examples, blood samples were withdrawn and analyzed for the concentration of the compound in the blood and percent efficacy against adult housefly and blowfly larvae.

adult housefly [3] = assay: Efficacy against adult housefly, calves jugular infusion (Example 18); format: in vivo, Musca domestica; details: Evaluation I, calf 988, jugular infusion 0.66 mg/kg/day to day 10; day/hours per line
Description: as §1
as §2, with “15. Efficacy was reported, however, as the percent of blowfly larvae or adult housefly which was killed.” for “15.”
Three evaluations were conducted sequentially with the compound of Example 2, 2-hydroxy-2-(1,1,2,2-tetrafluoroethyl)-4-nitro-6-(trifluoromethyl)benzimidazoline, sodium salt, administered daily to calves by jugular infusion of a solution of the compound in distilled water. As described in the preceding example, blood samples were withdrawn and analyzed for concentration of the compound and efficacy against adult housefly and blowfly larvae.

adult housefly [4] = assay: Adult houseflies fed on serum of dosed guinea pigs; format: in vivo, Musca domestica; details: guinea pig, serum at 24 hours
Description: as §3
Percent mortality was determined separately for each guinea pig.
as §1

| Compound | % Efficacy, Adult Housefly (adult housefly [1]; calf 987) | % Efficacy, Adult Housefly (adult housefly [1]; calf 991) | % Efficacy, Blowfly Larvae (blowfly larvae; calf 986) | % Efficacy, Blowfly Larvae (blowfly larvae; calf 991) | % Efficacy, Adult Housefly (adult housefly [2]) | % Efficacy, Adult Housefly (adult housefly [3]) | Efficacy Rating, Adult Housefly (adult housefly [4]; 1 mg./kg. i.p.) | Efficacy Rating, Adult Housefly (adult housefly [4]; 5 mg./kg. i.p.) |
| --- | --- | --- | --- | --- | --- | --- | --- | --- |
| O=[N+]([O-])c1cc(C(F)(F)F)cc2c1NC(O)(C(F)(F)C(F)F)N2 (centres unmarked) [Example 2, 2-Hydroxy-2-(1,1,2,2-Tetrafluoroethyl)-4-Nitro-6-(Trifluoromethyl)Benzimidazoline, Sodium Salt, and Hydrate] | 100% | 100% | 100% | 100% | 100% | 100% | – | – |
| O=[N+]([O-])c1cc(Cl)cc2c1NC(O)(C(F)F)N2 (centres unmarked) [Example 5, 2-Hydroxy-2-(Difluoromethyl)-4-Nitro-6-Chlorobenzimidazoline, Calcium Salt] | – | – | – | – | – | – | 1 (<50% dead) | 1 (<50% dead) |
